According to PubChem BioAssay (NCI):
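A five-concentration, 48-hour dose response in 96-well plates underlies each endpoint, interpolated linearly between surrounding concentrations. TGI: total growth inhibition.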

Key:
Assay in all cases: inhibition of tumour cell growth, NCI panel, 48 h
786-0 renal = test system: 786-0 renal
A549 NSCLC = test system: A549 NSCLC
ACHN renal = test system: ACHN renal
BT-549 breast = test system: BT-549 breast
CAKI-1 renal = test system: CAKI-1 renal
CCRF-CEM leukemia = test system: CCRF-CEM leukemia
COLO 205 colon = test system: COLO 205 colon
DU-145 prostate = test system: DU-145 prostate
EKVX NSCLC = test system: EKVX NSCLC
HCT-116 colon = test system: HCT-116 colon
HCT-15 colon = test system: HCT-15 colon
HL-60(TB) leukemia = test system: HL-60(TB) leukemia
HOP-62 NSCLC = test system: HOP-62 NSCLC
HOP-92 NSCLC = test system: HOP-92 NSCLC
HS 578T breast = test system: HS 578T breast
HT29 colon = test system: HT29 colon
IGROV1 ovarian = test system: IGROV1 ovarian
K-562 leukemia = test system: K-562 leukemia
KM12 colon = test system: KM12 colon
LOX IMVI melanoma = test system: LOX IMVI melanoma
M14 melanoma = test system: M14 melanoma
MCF7 breast = test system: MCF7 breast
MDA-MB-231 breast = test system: MDA-MB-231 breast
MDA-MB-435 = test system: MDA-MB-435
MDA-N = test system: MDA-N
MOLT-4 leukemia = test system: MOLT-4 leukemia
NCI-H226 lung = test system: NCI-H226 lung
NCI-H23 lung = test system: NCI-H23 lung
NCI-H460 lung = test system: NCI-H460 lung
NCI-H522 lung = test system: NCI-H522 lung
NCI/ADR-RES ovarian = test system: NCI/ADR-RES ovarian
OVCAR-3 ovarian = test system: OVCAR-3 ovarian
OVCAR-4 ovarian = test system: OVCAR-4 ovarian
OVCAR-5 ovarian = test system: OVCAR-5 ovarian
OVCAR-8 ovarian = test system: OVCAR-8 ovarian
PC-3 prostate = test system: PC-3 prostate
RXF 393 renal = test system: RXF 393 renal
SF-268 CNS = test system: SF-268 CNS
SF-295 CNS = test system: SF-295 CNS
SF-539 CNS = test system: SF-539 CNS
SK-MEL-28 melanoma = test system: SK-MEL-28 melanoma
SK-MEL-5 melanoma = test system: SK-MEL-5 melanoma
SK-OV-3 ovarian = test system: SK-OV-3 ovarian
SN12C renal = test system: SN12C renal
SNB-19 CNS = test system: SNB-19 CNS
SNB-75 CNS = test system: SNB-75 CNS
SR leukemia = test system: SR leukemia
SW-620 colon = test system: SW-620 colon
T-47D breast = test system: T-47D breast
TK-10 renal = test system: TK-10 renal
U251 CNS = test system: U251 CNS
UACC-257 melanoma = test system: UACC-257 melanoma
UACC-62 melanoma = test system: UACC-62 melanoma
UO-31 renal = test system: UO-31 renal
A498 renal = test system: A498 renal
HCC-2998 colon = test system: HCC-2998 colon
MALME-3M melanoma = test system: MALME-3M melanoma
RPMI-8226 leukemia = test system: RPMI-8226 leukemia
SK-MEL-2 melanoma = test system: SK-MEL-2 melanoma

`CC1=C(C(=O)OCc2ccncc2)C(C2=C(C)SCCS2)C(C(=O)OCc2ccncc2)=C(C)N1` showed a TGI (786-0 renal) greater than 100 µM, a TGI (A549 NSCLC) greater than 100 µM and a TGI (ACHN renal) greater than 100 µM. For the same compound, the TGI (BT-549 breast) was 42.2 µM, the TGI (CAKI-1 renal) was greater than 100 µM and the TGI (CCRF-CEM leukemia) was 59.8 µM. For the same compound, the TGI (COLO 205 colon) was greater than 100 µM, the TGI (DU-145 prostate) was greater than 100 µM and the TGI (EKVX NSCLC) was greater than 100 µM. The TGI (HCT-116 colon) was 32.2 µM, the TGI (HCT-15 colon) was 64.7 µM and the TGI (HL-60(TB) leukemia) was 79.3 µM. For the same compound, the TGI (HOP-62 NSCLC) was 58.6 µM, the TGI (HOP-92 NSCLC) was 31.5 µM and the TGI (HS 578T breast) was 58.3 µM. The TGI (HT29 colon) was 40 µM, the TGI (IGROV1 ovarian) was greater than 100 µM and the TGI (K-562 leukemia) was 59.2 µM. For the same compound, the TGI (KM12 colon) was 47.5 µM, the TGI (LOX IMVI melanoma) was 35.8 µM and the TGI (M14 melanoma) was 71 µM. It also gave a TGI (MCF7 breast) of 52 µM, a TGI (MDA-MB-231 breast) of 91.9 µM and a TGI (MDA-MB-435) of 38.9 µM. It also gave a TGI (MDA-N) of 72.8 µM, a TGI (MOLT-4 leukemia) of 49.2 µM and a TGI (NCI-H226 lung) of 42.7 µM. The TGI (NCI-H23 lung) was 76.5 µM, the TGI (NCI-H460 lung) was 73.5 µM and the TGI (NCI-H522 lung) was 54 µM. The TGI (NCI/ADR-RES ovarian) was greater than 100 µM, the TGI (OVCAR-3 ovarian) was 38.8 µM and the TGI (OVCAR-4 ovarian) was greater than 100 µM. The TGI (OVCAR-5 ovarian) was greater than 100 µM, the TGI (OVCAR-8 ovarian) was greater than 100 µM and the TGI (PC-3 prostate) was 52.4 µM. For the same compound, the TGI (RXF 393 renal) was 27.4 µM, the TGI (SF-268 CNS) was greater than 100 µM and the TGI (SF-295 CNS) was 38 µM. The TGI (SF-539 CNS) was 33 µM, the TGI (SK-MEL-28 melanoma) was 34 µM and the TGI (SK-MEL-5 melanoma) was 28.6 µM. It also gave a TGI (SK-OV-3 ovarian) of 88 µM, a TGI (SN12C renal) of 70.6 µM and a TGI (SNB-19 CNS) of 87.5 µM. It also gave a TGI (SNB-75 CNS) of 66.6 µM, a TGI (SR leukemia) greater than 100 µM and a TGI (SW-620 colon) of 64.6 µM. For the same compound, the TGI (T-47D breast) was 42.8 µM, the TGI (TK-10 renal) was greater than 100 µM and the TGI (U251 CNS) was 33.2 µM. The TGI (UACC-257 melanoma) was 50.1 µM, the TGI (UACC-62 melanoma) was 73.6 µM and the TGI (UO-31 renal) was 37.9 µM.
Work on `O=C1c2scc(-c3ccccc3)c2-n2cccc21` yielded a TGI (786-0 renal) of 28 µM, a TGI (A498 renal) of 5.02 µM and a TGI (A549 NSCLC) of 42.6 µM. It also gave a TGI (ACHN renal) greater than 100 µM, a TGI (BT-549 breast) greater than 100 µM and a TGI (CAKI-1 renal) of 31.9 µM. For the same compound, the TGI (CCRF-CEM leukemia) was 60.8 µM, the TGI (COLO 205 colon) was 31.7 µM and the TGI (DU-145 prostate) was greater than 100 µM. For the same compound, the TGI (EKVX NSCLC) was 25.4 µM, the TGI (HCC-2998 colon) was 59.5 µM and the TGI (HCT-116 colon) was 26.2 µM. It also gave a TGI (HCT-15 colon) greater than 100 µM, a TGI (HOP-62 NSCLC) of 38.1 µM and a TGI (HS 578T breast) of 24 µM. The TGI (HT29 colon) was 25.3 µM, the TGI (IGROV1 ovarian) was 17.7 µM and the TGI (KM12 colon) was 27.3 µM. It also gave a TGI (LOX IMVI melanoma) of 27.9 µM, a TGI (M14 melanoma) of 33.3 µM and a TGI (MALME-3M melanoma) of 30.7 µM. The TGI (MCF7 breast) was 52.9 µM, the TGI (MDA-MB-231 breast) was 31.4 µM and the TGI (MDA-MB-435) was 29 µM. For the same compound, the TGI (MDA-N) was 50 µM, the TGI (MOLT-4 leukemia) was 37.9 µM and the TGI (NCI-H226 lung) was 25 µM. It also gave a TGI (NCI-H460 lung) greater than 100 µM, a TGI (NCI-H522 lung) of 25.2 µM and a TGI (NCI/ADR-RES ovarian) of 35.4 µM. It also gave a TGI (OVCAR-3 ovarian) of 38.1 µM, a TGI (OVCAR-4 ovarian) greater than 100 µM and a TGI (OVCAR-5 ovarian) of 48 µM. For the same compound, the TGI (OVCAR-8 ovarian) was 27.4 µM, the TGI (PC-3 prostate) was 41.2 µM and the TGI (RPMI-8226 leukemia) was 34.1 µM. The TGI (RXF 393 renal) was 29.9 µM, the TGI (SF-268 CNS) was 30.3 µM and the TGI (SF-295 CNS) was 36 µM. It also gave a TGI (SK-MEL-2 melanoma) of 30.7 µM, a TGI (SK-MEL-28 melanoma) of 28.8 µM and a TGI (SK-MEL-5 melanoma) of 30 µM. It also gave a TGI (SK-OV-3 ovarian) of 44.7 µM, a TGI (SN12C renal) of 74.8 µM and a TGI (SNB-19 CNS) of 42 µM. It also gave a TGI (SNB-75 CNS) of 27.2 µM, a TGI (SR leukemia) of 47.2 µM and a TGI (SW-620 colon) of 34.1 µM. For the same compound, the TGI (T-47D breast) was 80.9 µM, the TGI (TK-10 renal) was greater than 100 µM and the TGI (U251 CNS) was 27.7 µM. For the same compound, the TGI (UACC-257 melanoma) was greater than 100 µM, the TGI (UACC-62 melanoma) was 55.6 µM and the TGI (UO-31 renal) was greater than 100 µM.
Compound `COc1ccc(Nc2nn3c(=O)c4c(C)c(C)sc4nc3s2)cc1` has a TGI (786-0 renal) of 51 µM, a TGI (A549 NSCLC) of 38.5 µM and a TGI (ACHN renal) greater than 100 µM. It also gave a TGI (BT-549 breast) greater than 100 µM, a TGI (CAKI-1 renal) greater than 100 µM and a TGI (CCRF-CEM leukemia) greater than 100 µM. The TGI (COLO 205 colon) was greater than 100 µM, the TGI (DU-145 prostate) was 34.5 µM and the TGI (HCT-116 colon) was 60.5 µM. For the same compound, the TGI (HCT-15 colon) was greater than 100 µM, the TGI (HL-60(TB) leukemia) was greater than 100 µM and the TGI (HOP-62 NSCLC) was 76.8 µM. It also gave a TGI (HOP-92 NSCLC) of 69.2 µM, a TGI (HS 578T breast) greater than 100 µM and a TGI (HT29 colon) greater than 100 µM. It also gave a TGI (IGROV1 ovarian) greater than 100 µM, a TGI (K-562 leukemia) greater than 100 µM and a TGI (KM12 colon) greater than 100 µM. It also gave a TGI (LOX IMVI melanoma) greater than 100 µM, a TGI (M14 melanoma) greater than 100 µM and a TGI (MALME-3M melanoma) of 89 µM. The TGI (MCF7 breast) was greater than 100 µM, the TGI (MDA-MB-231 breast) was greater than 100 µM and the TGI (MDA-MB-435) was greater than 100 µM. For the same compound, the TGI (MDA-N) was greater than 100 µM, the TGI (MOLT-4 leukemia) was greater than 100 µM and the TGI (NCI-H226 lung) was greater than 100 µM. For the same compound, the TGI (NCI-H23 lung) was 46.9 µM, the TGI (NCI-H460 lung) was greater than 100 µM and the TGI (NCI-H522 lung) was 67.1 µM. It also gave a TGI (NCI/ADR-RES ovarian) greater than 100 µM, a TGI (OVCAR-3 ovarian) of 78.8 µM and a TGI (OVCAR-4 ovarian) of 48.3 µM. It also gave a TGI (OVCAR-5 ovarian) greater than 100 µM, a TGI (OVCAR-8 ovarian) greater than 100 µM and a TGI (PC-3 prostate) greater than 100 µM. The TGI (RXF 393 renal) was 36.7 µM, the TGI (SF-268 CNS) was greater than 100 µM and the TGI (SF-295 CNS) was greater than 100 µM. The TGI (SF-539 CNS) was greater than 100 µM, the TGI (SK-MEL-2 melanoma) was greater than 100 µM and the TGI (SK-MEL-28 melanoma) was greater than 100 µM. For the same compound, the TGI (SK-MEL-5 melanoma) was greater than 100 µM, the TGI (SK-OV-3 ovarian) was greater than 100 µM and the TGI (SN12C renal) was greater than 100 µM. For the same compound, the TGI (SNB-19 CNS) was greater than 100 µM, the TGI (SNB-75 CNS) was 49.8 µM and the TGI (SR leukemia) was greater than 100 µM. It also gave a TGI (SW-620 colon) greater than 100 µM, a TGI (T-47D breast) of 63.5 µM and a TGI (TK-10 renal) of 78.8 µM. For the same compound, the TGI (U251 CNS) was greater than 100 µM, the TGI (UACC-257 melanoma) was greater than 100 µM and the TGI (UACC-62 melanoma) was greater than 100 µM. It also gave a TGI (UO-31 renal) of 35.3 µM.
